Reference: patent US20150202224A1, “METHOD OF TREATING IRON DEFICIENCY ANEMIA” (Luitpold Pharmaceuticals, Inc., priority 2012, published 2015)
Read-outs that look alike come from different tables or passages of the source.

Columns and labels:
[1] = system: subjects with iron deficiency anemia (IDA); test: Randomized trial of ferric carboxymaltose vs. oral iron in non-responders to the oral iron run-in: hemoglobin levels; assay type: in vivo, human; settings: for Hemoglobin at baseline (Day 1), mean (SD): before randomized treatment, non-responders to oral iron run-in; for Hemoglobin change to Day 35, mean (SD) / Hemoglobin change to Day 35, median: change from baseline (Day 1) to Day 35; for percentage of subjects with a hemoglobin increase of ≧1 g/dL: non-responders to the oral iron run-in in whom hepcidin values were measured; for percentage of subjects with a hemoglobin increase of ≧1 g/dL / mean Hemoglobin increases / percentage of subjects with hemoglobin change ≧2 g/dL: after randomization; for mean Hemoglobin increases / percentage of subjects with hemoglobin change ≧2 g/dL: non-responders to the oral iron run-in
Description: The following example describes hepcidin measurements obtained during a randomized, multi-center, controlled trial comparing the efficacy and safety of ferric carboxymaltose in subjects with iron deficiency anemia (IDA) (see generally, Szczech 2011).
(§1) Ferric carboxymaltose (Group A) was administered at a dose of 15 mg/kg to a maximum 750 mg per dose administered intravenously on Day 0 and Day 7. Oral iron was given as ferrous sulfate 325 mg three times a day for an additional 14 days starting on Day 0.
Hemoglobin levels and markers of iron status were assessed up to 35 days and measures of safety and tolerability were assessed up to 120 days. Hemoglobin levels and markers of iron status were assessed at screening (Day […]), Day 1, and Day 35.
(§2) The following example describes the randomized study of ferric carboxymaltose (FCM) vs. oral iron therapy on non-responders. Baseline (Day 1) and post-treatment (Day 35) levels of hepcidin and hemoglobin were compared.

[2] = system: hepcidin; test: Randomized trial of ferric carboxymaltose vs. oral iron in non-responders: serum hepcidin levels by C-ELISA; assay type: in vivo, human; settings: for Hepcidin on Day 35, mean (SD) / Hepcidin on Day 35, median / Hepcidin at baseline (Day 1), mean (SD) / Hepcidin at baseline (Day 1), median: non-responders to oral iron run-in; for Hepcidin at baseline (Day 1), mean (SD): before randomized treatment; for Hepcidin change to Day 35, mean (SD) / Hepcidin change to Day 35, median: change from baseline (Day 1) to Day 35; for change in hepcidin from baseline (Day 1) to Day 35, in words: non-responders to the oral iron run-in
Description: as §1
Hepcidin levels were analyzed from serum samples obtained at screening (Day […]) in an initial Analysis Group (I) of 44 subjects, 22 responders, and 22 non-responders. A hepcidin value of ≧20 ng/mL was identified as a cutoff for further study in the determination of predictive values for non-responsiveness to 14 day oral iron run-in in 240 subjects (Analysis Group II).
Hepcidin levels were also assessed after the oral iron run-in (Day 1) and after treatment with intravenous (IV) iron or oral iron post-randomization (Day 35). Hepcidin levels were measured using a commercially available competitive enzyme-linked immunosorbent assay (C-ELISA). Samples were collected by the investigator at the site, stored by a contract research organization (Covance, Indianapolis, Ind.) and sent to a commercial laboratory (Intrinsic LifeSciences, La Jolla, Calif.) for analysis.
as §2

[3] = system: subjects with iron deficiency anemia (IDA); settings: Analysis Group II, ferrous sulfate 325 mg three times daily for 14 days
Description: Eligibility for this trial included subjects≧18 years of age with hemoglobin≦11 g/dL and IDA of any etiology with ferritin≦100 ng/mL, or ≦300 ng/mL when transferrin saturation (TSAT) was ≦30%.
The following example describes the determination and comparison of hepcidin levels in 240 subjects with response to oral iron. Hepcidin and other iron indices were measured and compared. The objective of the study was to determine the baseline characteristics of the subject population and to compare levels of hepcidin, hemoglobin, and iron indices in responders and non-responders after a 14 day treatment of oral iron.

[4] = cited from earlier work
[5] = in vivo; cited from earlier work
[6] = system: rodents and dogs; settings: single dose; cited from earlier work
[7] = system: dogs and rats; settings: cumulative doses over 13 weeks, dose-related clinical signs of iron accumulation in liver, spleen, kidneys; cited from earlier work
[8] = system: rabbit; settings: intra-arterial, perivenous or intravenous; cited from earlier work
[9] = in vitro and in vivo; cited from earlier work
[10] = system: dextran antibodies; settings: cited from earlier work
[11] = listed as ferric carboxymaltose

| Substance | Hemoglobin on Day 35, mean (SD) [1] | Hemoglobin on Day 35, median [1] [g/dL] | Hemoglobin at baseline (Day 1), median [1] [g/dL] | Hemoglobin at baseline (Day 1), mean (SD) [1] | Hemoglobin change to Day 35, mean (SD) [1] | Hemoglobin change to Day 35, median [1] [g/dL] | percentage of subjects with a hemoglobin increase of ≧1 g/dL [1] [%] | mean Hemoglobin increases [1] [gm/dL] | percentage of subjects with hemoglobin change ≧2 g/dL [1] [%] | Hepcidin on Day 35, mean (SD) [2] | Hepcidin on Day 35, median [2] [ng/mL] | Hepcidin at baseline (Day 1), mean (SD) [2] | Hepcidin at baseline (Day 1), median [2] [ng/mL] | Hepcidin change to Day 35, mean (SD) [2] | Hepcidin change to Day 35, median [2] [ng/mL] | change in hepcidin from baseline (Day 1) to Day 35, in words [2] | other results |
| --- | --- | --- | --- | --- | --- | --- | --- | --- | --- | --- | --- | --- | --- | --- | --- | --- | --- |
| ferrous sulfate [Oral iron] | 11.0 (1.3) g/dL | 10.9 | 10.7 | 10.4 (1.2) g/dL | 0.6 (0.9) g/dL | 0.5 | 20.8 | 0.6±0.9 | 5.2 | 29.0 (53.894) ng/mL | 10.5 | 32.0 (44.314) ng/mL | 19.6 | −3.02 (41.793) ng/mL | -6.0 | no significant change | Hemoglobin change to Day 35, mean (SD) ([1]; listed as oral iron): 0.6 g/dL; Hepcidin at baseline (Day 1), mean (SD) ([2]; listed as oral iron): 32.03 ng/mL; hemoglobin change after the 14 day oral iron run-in, non-responders ([3]; non-responders (Hb Δ <1 g/dL)): 0.2 ± 0.4 g/dL; hemoglobin change after the 14 day oral iron run-in, responders ([3]; responders (Hb Δ ≧1 g/dL)): 1.8 ± 0.6 g/dL |
| iron sucrose | – | – | – | – | – | – | – | – | – | – | – | – | – | – | – | – | injected amount still in the blood ([4]; in vivo, iv): 2 to 13%; projected calculated terminal half-life (t½) ([4]; in vivo, iv): 6 h |
| polynuclear iron (III)-hydroxide 4(R)-(poly-(1→4)-O-α-glucopyranosyl)-oxy-2(R),3(S),5(R),6-tetrahydroxy-hexanoate [FCM] | 12.0 (1.4) g/dL | 12.2 | 10.4 | 10.3 (1.1) g/dL | 1.7 (1.3) g/dL | 1.7 | 65.3 | 1.7±1.3 | 37.5 | 160.5 (181.543) ng/mL | 112.6 | 39.2 (92.236) ng/mL | 2.5 | 121.35 (115.977) ng/mL | 91.9 | significant increase | Hemoglobin change to Day 35, mean (SD) [1, 11]: 1.7 g/dL; Hepcidin on Day 35, mean (SD) [2, 11]: 160.51 ng/mL; Hepcidin at baseline (Day 1), mean (SD) [2, 11]: 39.15 ng/mL; Hepcidin change to Day 35, mean (SD) [2, 11]: 121.35 ng/mL; acute toxicity relative to iron sucrose [5]: one-fifth that of iron sucrose; safe and tolerated intravenous dose as multiple of the equivalent of an intravenous infusion of 1,000 mg iron once weekly in humans [6]: up to 60 times; no observed adverse effect level, cumulative dose [7]: up to 117 mg iron/kg body weight; treatment-related local tissue irritation [8]: No treatment-related local tissue irritation was observed; mutagenicity [9]: no evidence that FCM is clastogenic, mutagenic, or causes chromosomal damage or bone marrow cell toxicity; reaction with dextran antibodies [10]: does not react with dextran antibodies; specific responses in a dextran antigenicity test [10]: no specific responses; injected amount still in the blood ([4]; eight hours after intravenous administration): 5 to 20%; projected calculated terminal half-life (t½) ([4]; intravenous): approximately 16 hours |
